We go through one compound from patent US10471050B2, “2-OXO-1,2-dihydropyridine-3,5-dicarboxamide compounds as bromodomain inhibitors” (GlaxoSmithKline Intellectual Property (No. 2) Limited, priority 2015, dated 2019).

One test has as its target T1, BRD4 BD2 (Homo sapiens, UniProt O60885, Y97A).
T1 construct: BRD4 (1-477) (Y97A) and (Y390A); made in house; host or cells: E. coli (pET15b vector)
In words: BRD4 BD2 TR-FRET competition assay. The conditions noted are these: single mutant tandem BRD4, read-out: pIC50 in the BRD4 BD2 assay (converted). The class given is binding. As for the experimental part: Bromodomain binding was assessed utilising a time resolved fluorescent resonance energy transfer (TR-FRET) competition assay. To enable this approach a known, high affinity, pan-BET interacting small molecule was labelled with Alexa Fluor® 647, which is a far-red-fluorescent dye (Reference Compound X). Reference Compound X acts as a reporter of bromodomain binding and is the acceptor fluorophore component of the TR-FRET pair. Europium chelate, conjugated to an anti-6*His antibody, was utilised as the donor fluorophore in the TR-FRET pair. […] A TR-FRET signal is generated when the donor and acceptor fluorophores are in close proximity, between 20-80 Å, which is enabled in this assay by binding of Reference Compound X to the bromodomain protein.
In order to generate a TR-FRET signal, donor fluorophore is excited by a laser at λ337 nm, which subsequently leads to emission at λ618 nm. If the acceptor fluorophore is in close proximity then energy transfer can occur, which leads to emission of Alexa Fluor® 647 at λ665 nm. In the presence of competitor compound, Reference Compound X can be displaced from binding to the bromodomain. If displacement occurs, the acceptor fluorophore is no longer in proximity to the donor fluorophore, which prevents fluorescent energy transfer and, subsequently, a loss of Alexa Fluor® 647 emission at λ665 nm.
The competition of the compounds of formula (I) with Reference Compound X for binding to the BET family (BRD2, BRD3, BRD4 and BRDT) was assessed using protein truncates spanning both bromodomain 1 (BD1) and bromodomain 2 (BD2). In order to monitor differential binding to either BD1 or BD2, single residue mutations of key tyrosines to alanine were made in the acetyl lysine binding pockets. To validate this approach, a double residue mutant tandem domain protein was produced for each of the BET family members. Utilising a Fluorescence Polarisation approach, binding affinities for each of the single and double mutants for Reference Compound X were determined.
Final purification was completed by Superdex 200 prep grade size exclusion column. Purified protein was stored at −80° C. in 20 mM HEPES pH 7.5 and 100 mM NaCl.
All assay components were dissolved in an assay buffer composing of 50 mM HEPES pH7.4, 50 mM NaCl, 5% Glycerol, 1 mM DTT and 1 mM CHAPS. Reference Compound X was diluted, in assay buffer containing 20 nM single mutant, tandem bromodomain protein, to a concentration equivalent to 2*Kd for this bromodomain. The solution containing bromodomain and Reference Compound X was added to dose response dilutions of test compound or DMSO vehicle (a maximum of 0.5% DMSO is used in this assay) in Greiner 384 well black low volume microtitre plates and subsequently incubated for 30 minutes at room temperature. An equal volume of 3 nM of anti-6*His Europium chelate was added to all wells, followed by a further 30 minute incubation at room temperature. TR-FRET was detected using a Perkin Elmer Multimode plate reader, by exciting the donor fluorophore at λ337 nm and subsequently, after a delay of 50 μsecs, measuring emission of the donor and acceptor fluorophores at λ615 nm and λ665 nm, respectively. In order to control these assays, 16 replicates each of uninhibited (DMSO vehicle) and inhibited (10*IC50 concentrations of Example 11 of WO 2011/054846A1) TR-FRET assays were included on every microtitre plate.
cA four parameter curve fit of the following form was then applied: y=a+((b−a)/(1+(10^x/10^c)^d)
Where ‘a’ is the minimum, ‘b’ is the Hill slope, ‘c’ is the pIC50 and ‘d’ is the maximum.
On the technique in general: In TR-FRET formats the signal depends on donor and acceptor labels being close together.

The subject of another test is BRD4 BD2 over BRD4 BD1. Nature of the test: Calculation of selectivity for BRD4 BD2 over BRD4 BD1 from the TR-FRET assays. The conditions noted are these: 1 log unit = 10 fold, 2 log unit = 100 fold. The class given is binding, Human. As for the experimental part: Bromodomain binding was assessed utilising a time resolved fluorescent resonance energy transfer (TR-FRET) competition assay. To enable this approach a known, high affinity, pan-BET interacting small molecule was labelled with Alexa Fluor® 647, which is a far-red-fluorescent dye (Reference Compound X). Reference Compound X acts as a reporter of bromodomain binding and is the acceptor fluorophore component of the TR-FRET pair. Europium chelate, conjugated to an anti-6*His antibody, was utilised as the donor fluorophore in the TR-FRET pair. The anti-6*His antibody binds selectively to a six Histidine purification epitope added to the amino-terminus of each of the BET tandem bromodomain protein constructs used in this study. […]
The competition of the compounds of formula (I) with Reference Compound X for binding to the BET family (BRD2, BRD3, BRD4 and BRDT) was assessed using protein truncates spanning both bromodomain 1 (BD1) and bromodomain 2 (BD2). […] Utilising a Fluorescence Polarisation approach, binding affinities for each of the single and double mutants for Reference Compound X were determined. […] In the TR-FRET competition assay, Reference Compound X is used at a concentration that is equivalent to the Kd for the non-mutated bromodomain, which ensures that no binding at the mutated bromodomain is detected. […]

In the case of `CNC(=O)c1cc(C(=O)NCCCC(=O)O)cn(Cc2ccccc2)c1=O` [Example 44, 4-(1-Benzyl-5-(methylcarbamoyl)-6-oxo-1,6-dihydropyridine-3-carboxamido)butanoic acid], the IC50 at BRD4 BD2 is 100 to 1000 nM. The “selectivity for BRD4 BD2 over BRD4 BD1 (BRD4 BD2 pIC50 - BRD4 BD1 pIC50)” value in the test on BRD4 BD2 over BRD4 BD1 is below 1 log unit.
